# Measured values from patent publication US8946446B2, “Pyrrolo sulfonamide compounds for modulation of orphan nuclear receptor RAR-related orphan receptor-γ (ROR-γ, NR1F3) activity and for the treatment of chronic inflammatory and autoimmune diseases” (Phenex Pharmaceuticals AG, priority 2011, dated 2015).
# Molecular target: T1, RORγ ligand binding domain (LBD) (Homo sapiens, UniProt P51449)
# T1 construct: made in house; host or cells: E. coli BL-21 (BL3), vector pDEST15
# T1 sequence (P51449 269-508 limits assumed): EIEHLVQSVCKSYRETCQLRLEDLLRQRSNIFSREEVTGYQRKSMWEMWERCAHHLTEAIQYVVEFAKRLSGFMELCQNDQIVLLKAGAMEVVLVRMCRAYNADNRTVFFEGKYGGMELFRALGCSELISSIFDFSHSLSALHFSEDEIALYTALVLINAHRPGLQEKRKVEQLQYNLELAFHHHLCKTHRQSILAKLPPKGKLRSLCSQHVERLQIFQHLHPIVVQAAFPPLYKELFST
# Experiment: TR-FRET Activity Assay (ligand sensing, RORγ-LBD / coactivator peptide interaction)
# Assay type: biochemical
# Details: not given
# Source text: This method measures the ability of putative ligands to modulate the interaction between the purified bacterial expressed RORγ ligand binding domain (LBD) and synthetic N-terminally biotinylated peptides which are derived from nuclear receptor coactivator proteins such as but not limited to SRC1 (NcoA1), SRC2 (NcoA2, TIF2), SRC3 (NcoA3), PGC1α, PGC1β, CBP, GRIP1, TRAP220, RIP140.
# The ligand-binding domain (LBD) of RORγ was expressed as fusion protein with GST in […] cells using the vector pDEST15. Cells were lysed by lysozyme-treatment and sonication, and the fusion proteins purified over glutathione sepharose (Pharmacia) according to the manufacturers instructions. For screening of compounds for their influence on the RORγ-peptide interaction, the LANCE technology (Perkin Elmer) was applied. This method relies on the binding dependent energy transfer from a donor to an acceptor fluorophor attached to the binding partner of interest. For ease of handling and reduction of background from compound fluorescence LANCE technology makes use of generic fluorophore labels and time resolved detection assays were done in a final volume of 25 μL in a 384 well plate, in a Tris-based buffer system (20 mM Tris-HCl pH6.8; 60 mM KCl, 1 mM DTT; 5 mM MgCl2; 35 ng/μL BSA), containing 20-60 ng/well recombinantly expressed RORγ-LBD fused to GST, 200-600 nM N-terminally biotinylated peptide, 200 ng/well Streptavidin-xIAPC conjugate (Prozyme) and 6-10 ng/well Eu W1024-antiGST (Perkin Elmer). DMSO content of the samples was kept at 1%.
# After generation of the Tris-based buffer system, the potentially RORγ modulating ligands were diluted. […] The LANCE signal was detected by a Perkin Elmer EnVision™ Multilabel Counter. The results were visualized by plotting the ratio between the emitted light at 665 nm and 615 nm. […] Ligands that promote the complex formation induce a concentration-dependent increase in time-resolved fluorescent signal.
# The normalised TR-FRET assay values, using the following equation: 1000*665 nm measurement value/615 nm measurement value, were transferred to the program GraphPad Prism to generate graphs and dose response curves using the following equation:
# Equation: Sigmoidal Dose-Response (Variable Slope) Y=Bottom+(Top-Bottom)/(1+10^((LogEC50−X)*HillSlope)) X is the logarithm of the concentration. Y is the response. Y starts at Bottom and goes to Top with a sigmoidal shape.
# This is identical to the “four parameter logistic equation”. The IC50 values are calculated using this equation.
row,SMILES,IC50 [nM]
1,Cc1c(S(N)(=O)=O)cc(-c2cc(C(C)(C)C)c(OCC(=O)O)c(C(C)(C)C)c2)n1CC1CCCCC1 [16/9],> 2000
2,Cc1c(S(N)(=O)=O)cc(-c2cc(C(C)(C)C)cc(C(C)(C)C)c2)n1CC1CCCCO1 (centres unmarked) [1/21],500 to 2000
3,Cc1c(S(N)(=O)=O)cc(-c2cc(C(C)(C)C)cc(C(C)(C)CO)c2)n1CC1CCCCC1 [Example 50],> 2000
4,Cc1c(S(N)(=O)=O)cc(-c2cc3c(c(C(C)(C)C)c2)OCC(=O)N3C(C)C)n1CC1CCCCC1 [12/10],500 to 2000
5,COCCNS(=O)(=O)c1cc(-c2cc(C(C)(C)C)cc(C(C)(C)C)c2)n(CC2CCCCC2)c1C [Example 2/1],< 500

# Same assay, conditions: read-out: RORγ activity in the TR-FRET Activity Assay (IC50 FRET), Group
row,SMILES,IC50 [nM]
1,Cc1c(S(N)(=O)=O)cc(-c2cn(S(=O)(=O)c3cccc(Cl)c3)c3ccccc23)n1CC1CCCCC1 [53/1],> 2000
2,"Cc1c(S(N)(=O)=O)cc(-c2cc(C(C)(C)C)cc(C(C)(C)C(=O)O)c2)n1CC1CCCCC1 [Example 46, 2-(3-(tert-Butyl)-5-(1-(cyclohexylmethyl)-5-methyl-4-sulfamoyl-1H-pyrrol-2-yl)phenyl)-2-methylpropanoic acid]",> 2000
3,"Cc1c(S(N)(=O)=O)cc(-c2cc(C(C)(C)C)c(C(=O)O)c(C(C)(C)C)c2)n1CC1CCCCC1 [Example 8, 2,6-Di-tert-butyl-4-(1-(cyclohexylmethyl)-5-methyl-4-sulfamoyl-1H-pyrrol-2-yl)benzoic acid]",> 2000
4,COc1cc(-c2cc(S(N)(=O)=O)c(C)n2CC2CCCCC2)cc(C(C)(C)C)n1 [17/1],> 2000
5,"Cc1c(S(=O)(=O)NCC(C)(C)C(=O)O)cc(-c2ccc(S(=O)(=O)NC(C)(C)C)c(C(C)(C)C)c2)n1CC1CCCCC1 [Example 11, 3-(5-(3-(tert-Butyl)-4-(N-(tert-butyl)sulfamoyl)phenyl)-1-(cyclohexylmethyl)-2-methyl-1H-pyrrole-3-sulfonamido)-2,2-dimethylpropanoic acid]",> 2000
6,"Cc1c(S(N)(=O)=O)cc(-c2cc(O)cc(C(C)(C)C)c2)n1CC1CCCCC1 [Example 14, 5-(3-(tert-Butyl)-5-hydroxyphenyl)-1-(cyclohexylmethyl)-2-methyl-1H-pyrrole-3-sulfonamide]",> 2000
7,Cc1c(S(=O)(=O)NCC(C)(C)C(=O)O)cc(-c2cc(C(C)(C)C)cc(C3(C)CC3)c2)n1CC1CCCCC1 [11/1],> 2000
8,Cc1c(S(N)(=O)=O)cc(-c2cc(C(C)(C)C)cc(C(C)(C)CNC(=O)C3CC3)c2)n1CC1CCCCC1 [49/2],> 2000

# Further lines, results first:
row,IC50 [nM],SMILES
1,500 to 2000,"Cc1c(S(N)(=O)=O)cc(-c2cc(C(C)(C)C)cc(C(C)(C)C#N)c2)n1CC1CCCCC1 [Example 45, 5-(3-(tert-Butyl)-5-(2-cyanopropan-2-yl)phenyl)-1-(cyclohexylmethyl)-2-methyl-1H-pyrrole-3-sulfonamide]"
2,< 500,Cc1c(S(=O)(=O)NCCN2CCOCC2)cc(-c2cc(C(C)(C)C)cc(C(C)(C)C)c2)n1CC1CCCCC1 [2/6]
3,500 to 2000,Cc1c(S(N)(=O)=O)cc(-c2ccc(S(=O)(=O)NC(C)(C)CCO)c(C(F)(F)F)c2)n1CC1CCCCC1 [12/31]
4,< 500,Cc1c(S(N)(=O)=O)cc(-c2cc(C(C)(C)C)cc(C(C)(C)C)c2)n1CCC1CCCC1 [1/22]
5,500 to 2000,Cc1c(S(N)(=O)=O)cc(-c2ccc(S(=O)(=O)NC(C)(C)C)c(C(C)(C)C)c2)n1CC1CCCCC1 [22/1]
6,500 to 2000,Cc1c(S(N)(=O)=O)cc(-c2cc(C(=O)NC(C)(C)C)cc(C(F)(F)F)c2)n1CC1CCCCC1 [13/13]
7,500 to 2000,Cc1c(S(N)(=O)=O)c(C)n(CC2CCCCC2)c1-c1cc(C(C)(C)C)cc(C(C)(C)C)c1 [12/8]
8,< 500,Cc1c(S(N)(=O)=O)cc(-c2cn(S(=O)(=O)N(C)C(C)(C)C)c3ccccc23)n1CC1CCCCC1 [1/31]
9,500 to 2000,"CC(C)(C)c1cc(-c2c(Cl)c(S(N)(=O)=O)c(Cl)n2CC2CCCCC2)cc(C(C)(C)C)c1 [Example 30, 2,4-Dichloro-1-(cyclohexylmethyl)-5-(3,5-di-tert-butylphenyl)-1H-pyrrole-3-sulfonamide]"
10,500 to 2000,Cc1c(S(N)(=O)=O)cc(-c2cc(C(C)(C)C)cc(C(C)(C)C)c2)n1CC1CCC1 [1/39]
11,500 to 2000,COCCOc1c(C(C)(C)C)cc(-c2cc(S(N)(=O)=O)c(C)n2CC2CCCCC2)cc1C(C)(C)C [16/11]
12,< 500,Cc1c(S(N)(=O)=O)cc(-c2ccc(S(=O)(=O)NC(C)(C)C)c(C3(C)CC3)c2)n1CC1CCCCC1 [22/18]
13,500 to 2000,Cc1c(S(N)(=O)=O)cc(-c2ccc(S(=O)(=O)N3CCCCC3(C)C)c(C(F)(F)F)c2)n1CC1CCCCC1 [22/9]
14,500 to 2000,Cc1c(S(N)(=O)=O)cc(-c2cc(C(C)(C)C)nc(C(F)(F)F)c2)n1CC1CCCCC1 [1/23]
15,500 to 2000,Cc1c(S(N)(=O)=O)cc(-c2ccc(N3CCOCC3)c(C(C)(C)C)c2)n1CC1CCCCC1 [12/34]
16,< 500,Cc1c(S(N)(=O)=O)cc(-c2ccc(S(=O)(=O)NC(C)(C)C)c(C(F)(F)F)c2)n1CC1CCCCC1 [22/5]
